For the assay, the system named is IMR-32 neuroblastoma cell line. The assay can be described thus: Inhibition of erastin-induced ferroptosis in IMR-32 cells (Sytox Green cell death readout). Format: cell-based. The note with it: Homo sapiens; inhibiting ferroptosis in the IMR-32 neuroblastoma cell line stimulated with 10 μM erastin; compounds 1 nM to 1 μM, triplicate. As to the method: In the present disclosure, the potency of a compound inhibiting (or reducing) ferroptosis and/or oxytosis are determined in in vitro or in vivo assays. Typically in vitro assays are used to measure the potency of a candidate compound. Examples of suitable in vitro assays are cellular assays. One non-limiting example of an assay involves the use of the IMR-32 neuroblastoma cell line. The latter is stimulated to enter into ferroptosis upon stimulation with 10 μM erastin, a documented ferroptosis inducer (see, for example, Dixon et al. (2012) Cell 149, 1060-1072, and ferroptosis inhibitors are evaluated for the prevention of erastin-induced ferroptosis. Yet another assay is based the glutamate-induced cell death in the hippocampal cell line HT22 and ferroptosis/oxytosis inhibitors are evaluated for the prevention of cell death (see N. Henke et al. (2013) Cell Death and Disease 4, e470). Still another assay is based on the sorafinib-induced cell death (described to be iron dependent cell death) in hepatocellular carcinoma cells and ferroptosis inhibitors are evaluated for the prevention of cell death (see C. Louandre et al. (2013) Int. J. Cancer 133, 1732). The calculated potency of a compound inhibiting ferroptosis and/or oxytosis is typically depicted as an IC50 value. Examples of suitable in vivo assays are typically pre-clinical disease models of, for example, mice for the diseases benefiting the application of ferroptosis and/or oxytosis inhibitors, as described herein. One non-limiting example of an in vivo assay is based on inducing liver damage in mice by administering the herbicide diquat dibromide monohydrate and ferroptosis inhibitors are evaluated based on reduced levels of liver transaminases in serum (see Q. Ran et al. (2004) J. Biol. Chem. 279, 53, 55137).
The IC50 values for the individual compounds of the disclosure were determined in the neuroblastoma, IMR-32 cell line. In brief, IMR-32 cells were subjected to 10 μM erastin, the latter compound is known to induce ferroptosis. A concentration gradient (ranging from 1 nM to 1 μM) of the compounds was applied to the cells. These experiments were performed in a 96-well format (in triplicate), and cell death was analyzed in a fluorescent plate reader by use of a fluorescent cell death dye (1.5 μM Sytox Green). The IC50 values depicted in Table 1 are the concentration values for the individual compounds which are able to overcome ferroptosis.

In general, IC50 refers to the concentration needed to halve the response being measured. Low values mean greater potency, high ones weaker potency. In turn, `CCNS(=O)(=O)c1ccc(NC2CC2)c(N)c1` [Compound 20, 3-amino-4-(cyclopropylamino)-N-ethylbenzenesulfonamide] came in with a concentration for half-maximal inhibition (IC50) of 76 nM. That is a double-digit nanomolar value. In turn, `CCNS(=O)(=O)c1ccc(NC2CCCC2)c(N)c1` [Compound 21, 3-amino-4-(cyclopentylamino)-N-ethylbenzenesulfonamide] registered a half-maximal inhibitory concentration (IC50) of 82 nM. The IC50 values of the last two compounds are within 1.5-fold of each other. Then `CCNS(=O)(=O)c1ccc(NC2CC3CCC2C3)c(N)c1` (centres unmarked) [Compound 23, 3-amino-4-(bicyclo[2.2.1]heptan-2-ylamino)-N-ethylbenzenesulfonamide], with 28 nM; and `CCNS(=O)(=O)c1ccc(NC2CCCCCCC2)c(N)c1` [Compound 24, 3-amino-4-(cyclooctylamino)-N-ethylbenzenesulfonamide], with 9.3 nM; and `CCNS(=O)(=O)c1ccc(NC2C3CC4CC(C3)CC2C4)c(N)c1` (centres unmarked) [Compound 25, 4-(adamantan-2-ylamino)-3-amino-N-ethylbenzenesulfonamide], with 17 nM. In the case of `CNS(=O)(=O)c1ccc(NC2CCCCC2)c(N)c1` [Compound 26, 3-amino-4-(cyclohexylamino)-N-methylbenzenesulfonamide] it was 76 nM; in that of `CNS(=O)(=O)c1ccc(NC2C3CC4CC(C3)CC2C4)c(N)c1` (centres unmarked) [Compound 27, 3-amino-4-(adamantan-2-ylamine)-N-methylbenzenesulfonamide], 11 nM; in that of `CC(C)(C)NS(=O)(=O)c1ccc(NC2CCCCC2)c(N)c1` [Compound 28, 3-amino-N-(tert-butyl)-4-(cyclohexylamino)benzenesulfonamide], 27 nM. Then `CC(C)(C)NS(=O)(=O)c1ccc(NC2C3CC4CC(C3)CC2C4)c(N)c1` (centres unmarked) [Compound 29, 3-amino-N-(tert-butyl)-4-(adamantan-2-ylamine)benzenesulfonamide], with 6 nM; and `CC(C)(C)OCCNS(=O)(=O)c1ccc(NC2CCCCC2)c(N)c1` [Compound 30, 3-amino-N-(2-(tert-butoxy)ethyl)-4-(cyclohexylamino)benzenesulfonamide], with 132 nM. Turning to `CCNS(=O)(=O)c1ccc(NC2CC2)c(NCc2ccccc2)c1` [Compound 33, 3-(benzylamino)-4-(cyclopropylamino)-N-ethylbenzenesulfonamide], the midpoint of inhibition, the IC50, lay at 61 nM. Against the preceding compound, the IC50 is about 2.2-fold lower. Compound `CCNS(=O)(=O)c1ccc(NC2CC2)c(NCc2ccncc2)c1` [Compound 34, 4-(cyclopropylamino)-N-ethyl-3-((pyridin-4-ylmethyl)amino)benzenesulfonamide] yielded a 50% inhibitory concentration (IC50) of 128 nM. Compared with the last compound, the IC50 is about 2.1-fold higher. In the case of `CCNS(=O)(=O)c1ccc(NC2CCCC2)c(NCc2ccccc2)c1` [Compound 35, 3-(benzylamino)-4-(cyclopentylamino)-N-ethylbenzenesulfonamide] it was 8.2 nM; in that of `CCNS(=O)(=O)c1ccc(NC2CCCC2)c(NCc2ccncc2)c1` [Compound 36, 4-(cyclopentylamino)-N-ethyl-3-((pyridin-4-ylmethyl)amino)benzenesulfonamide], 36 nM. Then `CCNS(=O)(=O)c1ccc(NC2CCCCC2)c(NCc2ccncc2)c1` [Compound 38, 4-(cyclohexylamino)-N-ethyl-3-((pyridin-4-ylmethyl)amino)benzenesulfonamide], with 23 nM; and `CCNS(=O)(=O)c1ccc(NC2CC3CCC2C3)c(NCc2ccccc2)c1` (centres unmarked) [Compound 40, 3-(benzylamino)-4-(bicyclo[2.2.1]heptan-2-ylamino)-N-ethylbenzenesulfonamide], with 3 nM.

`CCNS(=O)(=O)c1ccc(NC2CC3CCC2C3)c(NCc2ccncc2)c1` (centres unmarked) [Compound 41, 4-(bicyclo[2.2.1]heptan-2-ylamino)-N-ethyl-3-((pyridin-4-ylmethyl)amino) benzenesulfonamide] showed an IC50 of 9.4 nM. Then `CCNS(=O)(=O)c1ccc(NC2CCCCCCC2)c(NCc2ccccc2)c1` [Compound 42, 3-(benzylamino)-4-(cyclooctylamino)-N-ethylbenzenesulfonamide], with 2.4 nM; and `CCNS(=O)(=O)c1ccc(NC2CCCCCCC2)c(NCc2ccncc2)c1` [Compound 43, 4-(cyclooctylamino)-N-ethyl-3-((pyridin-4-ylmethyl)amino)benzenesulfonamide], with 22 nM; and `CCNS(=O)(=O)c1ccc(NC2C3CC4CC(C3)CC2C4)c(NCc2cncnc2)c1` (centres unmarked) [Compound 46, 4-(adamantan-2-ylamino)-N-ethyl-3-((pyrimidin-5-ylmethyl)amino)benzenesulfonamide], with 47 nM. In the case of `CNS(=O)(=O)c1ccc(NC2CCCCC2)c(NCc2ccccc2)c1` [Compound 47, 3-(benzylamino)-4-(cyclohexylamino)-N-methylbenzenesulfonamide] it was 3.7 nM; in that of `CNS(=O)(=O)c1ccc(NC2CCCCC2)c(NCc2ccncc2)c1` [Compound 48, 4-(cyclohexylamino)-N-methyl-3-((pyridin-4-ylmethyl)amino)benzenesulfonamide], 15 nM. Then `CNS(=O)(=O)c1ccc(NC2C3CC4CC(C3)CC2C4)c(NCc2ccccc2)c1` (centres unmarked) [Compound 49, 4-(adamantan-2-ylamino)-3-(benzylamino)-N-methylbenzenesulfonamide], with 4.9 nM; and `CNS(=O)(=O)c1ccc(NC2C3CC4CC(C3)CC2C4)c(NCc2ccncc2)c1` (centres unmarked) [Compound 50, 4-(adamantan-2-ylamino)-N-methyl-3-((pyridin-4-ylmethyl)amino)benzenesulfonamide], with 6.4 nM; and `CC(C)(C)NS(=O)(=O)c1ccc(NC2CCCCC2)c(NCc2ccccc2)c1` [Compound 51, 3-(benzylamino)-N-(tert-butyl)-4-(cyclohexylamino)benzenesulfonamide], with 6.2 nM. `CC(C)(C)NS(=O)(=O)c1ccc(NC2CCCCC2)c(NCc2ccncc2)c1` [Compound 52, N-(tert-butyl)-4-(cyclohexylamino)-3-((pyridin-4-ylmethyl)amino)benzenesulfonamide] came in with a half-maximal inhibitory concentration (IC50) of 11 nM. In the case of `CC(C)(C)NS(=O)(=O)c1ccc(NC2C3CC4CC(C3)CC2C4)c(NCc2ccccc2)c1` (centres unmarked) [Compound 53, 4-(adamantan-2-ylamino)-3-(benzylamino)-N-(tert-butyl)benzenesulfonamide] it was 3.4 nM; in that of `CC(C)(C)NS(=O)(=O)c1ccc(NC2C3CC4CC(C3)CC2C4)c(NCc2ccncc2)c1` (centres unmarked) [Compound 54, 4-(adamantan-2-ylamino)-N-(tert-butyl)-3-((pyridin-4-ylmethyl)amino)benzenesulfonamide], 5.2 nM.

Turning to `CC(C)(C)OCCNS(=O)(=O)c1ccc(NC2CCCCC2)c(NCc2ccccc2)c1` [Compound 55, 3-(benzylamino)-N-(2-(tert-butoxy)ethyl)-4-(cyclohexylamino)benzenesulfonamide], the 50% inhibitory concentration (IC50) was found to be 22 nM. This IC50 lies about 4.2-fold higher than the previous one.

Source of the values: patent US9862678B2, “3,4-diaminobenzenesulfonamide derivatives for inhibiting cell death” (VIB VZW, priority 2014, dated 2018).
